Reference: patent publication US20080280890A1, “HYDROXYLAMINE COMPOUNDS AND METHODS OF THEIR USE” (priority 2007, published 2008)

Key:
[1] = system: lipid peroxidation; test: Lipid peroxidation inhibition (method of Ohkawa); assay type: biochemical
[2] = system: Angiogenesis in CAM model; test: Neovascularization on the CAM (chick chorioallantoic membrane model of angiogenesis); assay type: in vivo, chicken; details: 30 ug; for Percent inhibition of angiogenesis in CAM model at 30 ug: unit assumed
Method: In vivo neovascularization was examined by the method previously described by Auerbach et al. (J. Dev. Biol. 41:391-394 (1974)). Ten-day old chicken embryos were purchased from Spafas, Inc. (Preston, Conn.) and were incubated at 37° C. with 55% relative humidity. In the dark, with the aid of a candling lamp, a small hole was punctured in the shell concealing the air sac with a hypodermic needle. A second hole was punctured in the shell on the broadside of the egg directly over an […] portion of the embryonic membrane, as observed during candling. An artificial air sac was created beneath the second hole by applying gentle vacuum to the first hole using a small rubber squeeze bulb. The vacuum caused the chorioallantoic membrane (CAM) to separate from the shell.
A window, approximately 1.0 cm^2, was cut in the shell over the dropped CAM with the use of a small crafts grinding wheel (Dremel, Division of Emerson Electric Company Racine, Wis.). The window allowed direct access to the underlying CAM.
A pro-angiogenic agent was added to induce new blood vessel branches on the CAM of 10-day old embryos. Filter disks of #1 filter paper (Whatman International, United Kingdom) were punched using a small puncher and were soaked in 3 mg/mL cortisone acetate (Sigma, St. Louis, Mo.) in a solution (95% ethanol and water). The disks were subsequently air dried under sterile conditions. The disks were then suspended in PBS (Phosphate Buffered Saline) and placed on growing CAMs. Filters treated with TP-H (TEMPOL-H) or TEMPOL and/or H2O2 or TP-H and/or bFGF or VEGF were placed on the first day of the 3-day incubation.
For inducing angiogenesis, sterile filter disks were saturated with bFGF (1 μg/ml) (Life Technologies, Gaithersburg, Md.) or other pro-angiogenesis factors and control disks were saturated with PBS without Calcium and Magnesium. […]
Using sterile forceps one filter/CAM was placed from the window. The window was sealed with Highland brand transparent tape.
After 24-48 hr, 10-25 ul of test agent was injected intravenously or added topically into the CAM membrane. Eight-Ten eggs/treatment group were used.
CAM tissue directly beneath filter disk was harvested from embryos treated 48 hours prior with compound or control. Tissues were washed three times with PBS. Sections were placed in a 35-mm petri dish (Nalge Nunc, Rochester, N.Y.) and examined under a SV6 stereomicroscope (Karl Zeiss, Thornwood, N.Y.) at 50× magnification.
CAM sections from Petri dish were examined using SV6 stereomicroscope (Karl Zeiss) at 50× magnification. Digital images of CAM sections from Petri dish were collected using a 3-CCD color video camera system (Toshiba America, New York, N.Y.). These images were analyzed using Image-Pro Plus software (Media Cybernetics, Silver Spring, Md.).
The number of branch points in blood vessels within the circular region superimposed to the area of a filter disk was counted for each section. After incubation at 37° C. with 55% relative humidity for 3 days, the CAM tissue directly beneath each filter disk was resected from control and treated CAM samples. Tissues were washed three times with PBS. Sections were placed in a 35-mm Petri dish (Nalge Nunc; Rochester, N.Y.) and were examined under a SV6 stereomicroscope (Karl Zeiss; Thornwood, N.Y.) at 50× magnification. Digital images of CAM sections adjacent to filters were collected using a 3-CCD color video camera system (Toshiba America; New York, N.Y.) and analyzed with the Image-Pro Plus software (Media Cybernetics; Silver Spring, Md.).
The number of vessel branch points contained in a circular region equal to the area of a filter disk was counted for each section. Percent inhibition data are expressed as the quotient of the experimental value minus the negative control value divided by the difference between the positive control value and the negative control value. […]

[3] = system: Human neuroblastoma SKN-SH cells, resistant to doxorubicin; test: Chemoresistance: cancer cell viability (MTT) in presence or absence of doxorubicin; assay type: cell-based; details: compound 50 ug/mL, MTT
Source text: A method for evaluating a compound's propensity to overcome cancer cell chemoresistance is described in “Caspase Inhibition Switches Doxorubicin-Induced Apoptosis To Senescence”, Abdelhadi Rebbaa, Xin Zheng, Pauline M Chou and Bernard L Mirkin, Oncogene (2003) 22, 2805-2811. Resistant human cancer cells to doxorubicin were selected by stepwise exposure to drug concentrations ranging from 10^−9 M-10^−6 M over 3 months. They were then subjected to treatment with the doxorubicin alone or in combination with hydroxylamine compounds 1-12, 16, 20, and 21 (Table 4). The cells were incubated with the drugs for 72 hours, and cell viability was measured by the MTT assay. Additionally, molecular pathways that might be associated with increased chemo-responsiveness with these compounds were investigated. p Cancer Cell Viability Data for certain hydroxylamines in the presence or absence of Doxorubicin is listed in Table 4.
A method for evaluating a compound's propensity to overcome cancer cell chemoresistance is described in “Caspase Inhibition Switches Doxorubicin-Induced Apoptosis To Senescence”, Abdelhadi Rebbaa, Xin Zheng, Pauline M Chou and Bernard L Mirkin, Oncogene (2003) 22, 2805-2811. Human neuroblastoma SKN-SH cells (ATCC Cat. No. HTB-11) were cultured in Dulbecco's Modified Eagles Medium (DMEM; Gibco, Grand Island, N.Y.) supplemented with 10% fetal bovine serum (FBS; Sigma-Aldrich, St. Louis, Mo.) at 37° C. in a 95% Air/5% CO2 atmosphere. Resistant human cancer cells to doxorubicin were selected by stepwise exposure to drug concentrations ranging from 10^−9M-10^−6M over 3 months. They were then subjected to treatment with the doxorubicin alone or in combination with hydroxylamine compounds. The cells were incubated with the drugs for 72 hours, and cell viability was measured by the MTT assay. This consists of adding 10 μl/well of MTT (5 mg/ml solution) and incubation for 4 h at 37° C. The precipitate formed is then solubilized by addition of 100 μl of HCL 0.5 N/Isopropanol and incubation for 15 hours at 37° C. The optical density is measured at 570 nm and cell survival is estimated by comparison to untreated cells. Each point represents 4 wells data represent average ± SE. Additionally, molecular pathways that might be associated with increased chemo-responsiveness with these compounds were investigated.
Cytotoxic activity of doxorubicin and hydroxylamine analogs were quantitatively determined by a colorimetric assay utilizing 3-(4,5-dimethyl-2-thiazolyl) 2,5-diphenyl tetrazolium bromide (MTT; Sigma-Aldrich, St. Louis, Mo.). Briefly, cells were seeded at 10^4 cells/well in 96-well plates and maintained in culture for 24 hours at 37° C. in DMEM supplemented with 10% FBS. Drugs were added to designated wells and cells were incubated for […], following which MTT (10 μL of 5 mg/ml solution) was added to each 100 μl well and incubated for 4 hours at 37° C. The cells were solubilized by incubation with 100 μl of HCl 0.5N in isopropanol for 15 hours at 37° C. The optical density of this solution was measured at 570 nm and the percentage of viable cells estimated by comparison with untreated control cells.

| Compound | Lipid Peroxidation % Inhibition ([1]; 10 uM) [%] | CAM data % Inhibition [2] [%] | % Lipid Peroxidation inhibition (at 1 uM) [1] [%] | Percent inhibition of angiogenesis in CAM model at 30 ug [2] [%] | Mean OD (×10^−3), cancer cell viability ([3]; Dox. 10^−6 M present (+)) | Mean OD (×10^−3), cancer cell viability ([3]; Dox. absent (−)) | melting point | Lipid Peroxidation % Inhibition ([1]; 100 uM) [%] |
| --- | --- | --- | --- | --- | --- | --- | --- | --- |
| COc1cc2c(cc1O)CC[C@@H]1[C@@H]2CC[C@]2(C)[C@@H](O)CC[C@@H]12 [2-Methoxy estradiol, reference compound] | 92.3 | 92.3 |  |  |  |  |  |  |
| COC1CC(C)(C)N(O)C(C)(C)C1.Cl [Compound 1, 1-hydroxy-4-methoxy-2,2,6,6-tetramethylpiperidine] | 90.8 |  | 74.1 | 89.9 | 246.50 ×10^−3 | 524.75 ×10^−3 |  |  |
| CC1(C)CC(N2CCOCC2)CC(C)(C)N1O.Cl [Compound 3, 4-(2,2,6,6-tetramethylpiperidin-1-hydroxy-4-yl)morpholine] | 77.8 |  |  | 54.7 | 289.50 ×10^−3 | 640.25 ×10^−3 |  |  |
| CC1(C)CC(O)C(C)(C)N1O (stereo not shown) [Compound 7, 2,2,5,5-Tetramethyl-Pyrrolidine-1,3-diol] | 82.9 |  |  | 100 | 241.25 ×10^−3 | 540.25 ×10^−3 |  |  |
| CC1(C)CC(NS(C)(=O)=O)CC(C)(C)N1O [Compound 10, 1-hydroxy-4-methanesulfonamido-2,2,6,6-tetramethylpiperidine] | 85.8 |  |  | 78.2 | 250.00 ×10^−3 | 456.00 ×10^−3 |  |  |
| CC(C)(C)/[N+]([O-])=C/c1ccccc1 [Compound 17, α-phenyl-t-butyl nitrone, reference compound] | 0.4 |  |  |  |  |  |  |  |
| CC1(C)C=CCC(C)(C)N1O.Cl [Compound 35, 1-hydroxy-1,2,3,6-tetrahydro-2,2,6,6-tetramethylpyridine] |  |  | 64.4 |  | 352.75 ×10^−3 | 1128.00 ×10^−3 |  |  |
| CC1(C)COC(=O)C(C)(C)N1O.Cl [Compound 39, N-Hydroxyl-3,3,5,5-tetramethylmorpholin-2-one] |  |  |  | 96.9 | 311.00 ×10^−3 | 1201.00 ×10^−3 | 145 °C (dec.) |  |
| CCCCC1(O)CC(C)(C)N(O)C(C)(C)C1.Cl [Compound 41, 1,4-dihydroxy-4-n-butyl-2,2,6,6-tetramethylpiperidine] |  |  |  | 84.4 | 261.25 ×10^−3 | 824.75 ×10^−3 | 187 °C (dec.) |  |
| CC1(C)CC(O)(c2ccccc2)CC(C)(C)N1O.Cl [Compound 42, 1,4-Dihydroxy-4-phenyl-2,2,6,6-tetrmethylpiperidine] |  |  |  | 61.9 | 311.00 ×10^−3 | 1068.67 ×10^−3 | 201.7 °C (dec.) |  |
| CC1(C)CC(OCc2ccccc2)CC(C)(C)N1O.Cl [Compound 43, 4-Benzyloxy-1-hydroxy-2,2,6,6-tetramethylpiperidine] |  |  |  | 85.5 | 324.67 ×10^−3 | 1159.00 ×10^−3 | 181.5 °C (dec.) |  |
| CC1(C)CC(Oc2nsnc2-c2ccccc2)CC(C)(C)N1O.Cl [Compound 44, 1-hydroxy-4-(4-phenyl-1,2,5-thiadiazol-3-yloxy)-2,2,6,6-tetramethylpiperidine] |  |  |  | 71.2 | 13.25 ×10^−3 | 23.00 ×10^−3 | 220.8 °C (dec.) |  |
| CC1(C)CC(O)(c2ccc(F)cc2)CC(C)(C)N1O.Cl [Compound 57, 4-(4-Fluorophenyl)-1-hydroxyl-2,2,6,6-tetramethylpiperidin-4-ol] |  |  |  | 100 | 426.25 ×10^−3 | 1078.50 ×10^−3 | 220 °C (dec.) |  |
| COc1cc(CNC2CC(C)(C)N(O)C(C)(C)C2)cc(OC)c1OC.Cl.Cl [Compound 58, N-(3,4,5-trimethoxybenzyl)-1-hydroxy-2,2,6,6-tetramethylpiperidin-4-amine] |  |  |  | 39 | 291.50 ×10^−3 | 1207.00 ×10^−3 | 181 °C |  |
| O=C(O)c1cc(C(=O)O)c2c(n1)C(=O)C(=O)c1cc(C(=O)O)[nH]c1-2 [PQQ, pyrroloquinoline quinone, reference compound] |  |  |  |  |  |  |  | 93.7 |
